“Also recorded” adds a separate entry of the source.
Columns and labels:
[1] = biological target: T1, BRK (Homo sapiens, UniProt Q13882); assay: Tyrosine kinase assay (Kinase Selectivity System TK-2, ADP-Glo); format: biochemical; conditions: 1 h incubation, mean ± SD of four experiments
T1 construct: purchased Promega

[2] = biological target: T2, Fyn A (Homo sapiens, UniProt P06241); assay: as above; format: biochemical; conditions: 1 h incubation, mean ± SD of four experiments
T2 construct: purchased Promega
Procedure, shortened: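 Full-length, unphosphorylated non-receptor tyrosine kinases with regulatory domains, supplemented with ATP and incubated 1 h with peptide substrate. ADP formation read by ADP-Glo luminescence. Values are percent kinase inhibition from at least four experiments.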

[3] = biological target: T3, Lck (Homo sapiens, UniProt P06239); assay: as above; format: biochemical; conditions: 1 h incubation, mean ± SD of four experiments
T3 construct: purchased Promega

[4] = biological target: T4, Lyn B (Homo sapiens, UniProt P07948); assay: as above; format: biochemical; conditions: 1 h incubation, mean ± SD of four experiments
T4 construct: purchased Promega

[5] = biological target: T5, ABL (Homo sapiens, UniProt P00519); assay: Pharmacological synergy on the ABL enzyme model (ABL1 Kinase Assay); format: biochemical; conditions: Chou-Talalay method
T5 construct: purchased Promega
Protocol: We selected the aforementioned reference inhibitors based on their different modes of interaction with the kinases. […] Thus, the results of this experiment may allow identification of the site where the IS1 inhibitor binds to ABL kinase.
Synergy experiments were performed analogously to our previous reports[36]^,[65]. Synergy was calculated by the Chou-Talay method (CompuSyn software)[66]^,[67]. Experiments were performed at least three times.

[6] = system: A549; assay: Cytotoxicity studies (MTS), antiproliferative activity; format: cell-based, human; conditions: for IC50: Homo sapiens, A549, 72 h, MTS; for Selectivity index A549: versus NHDF
Excerpt: (§1) In contrast, the other cell lines studied represent common cancers found in the human population. Nevertheless, these cell lines are characterised by a different landscape of kinase expression, as reported in[36]. In chronic leukaemia cells, an aberration of the Philadelphia chromosome is common in which a fragment of chromosome 9 is displaced to chromosome 22, leading to the formation of the oncogenic protein BCR-ABL. The altered structure of the protein leads to abnormal activity that promotes excessive growth and differentiation of cells even in the absence of growth factors, as well as inhibition of apoptosis and formation of metastases. Moreover, the status of the TP53 gene in leukaemia is not insignificant. Mutations of the TP53 gene occur in more than 50% of all cancers, leading to increased metastasis and an overall poor prognosis[38]^,[39]. The p53 protein encoded by this gene plays a pivotal role in controlling cell division or cell fate when damage is detected. […] Therefore, interaction between the signalling network of the BCR-ABL pathway and p53 often results in an impairment of p53 function and survival[43]^,[44]. […] Selectivity studies were performed on normal human fibroblast – NHDF cell line.
(§2) M. Rusin from the Maria Sklodowska-Curie Memorial Cancer Centre and Institute of Oncology in Gliwice, Poland. […] G. Kramer-Marek from the Institute of Cancer Research in London, United Kingdom. The human suspension chronic myeloids leukaemia cell line K562 and the pancreatic ductal adenocarcinoma cell line PANC-1 were purchased from Merck. The normal human dermal fibroblasts cell line NHDF were obtained from PromoCell. All adherent cancer cell lines were cultured in Dulbecco’s Modified Eagle’s medium (DMEM) supplemented with 10% heat-inactivated foetal bovine serum – FBS (all from Merck). […] Each complete medium contained a mixture of two antibiotics - penicillin and streptomycin (1% v/v; Gibco). Cell lines were cultured at 37 °C with 5% CO2 humidified atmosphere.
(§3) The assay was carried out after 72 h of incubation with different concentrations of the tested compounds. Then DMEM without phenol red was added to each well with CellTiter 96®AQueous One Solution-MTS (Promega) solution and incubated for 1 h or 3 h (PANC-1) at 37 °C. The optical densities of the samples were measured at 490 nm using a multi-plate reader (Synergy 4, BioTek). […] Each compound was tested in triplicate in a single experiment and each experiment was performed three or four times.

[7] = system: HCT 116 p53+/+; assay: as above; format: cell-based, human; conditions: for IC50: Homo sapiens, HCT-116, 72 h, MTS; for Selectivity index HCT 116 p53+/+: versus NHDF
Excerpt: as §1, §2, §3

[8] = system: HCT 116 p53−/−; assay: as above; format: cell-based, human; conditions: for IC50: Homo sapiens, HCT-116, 72 h, MTS; for Selectivity index HCT 116 p53-/-: versus NHDF
Excerpt: as §1, §2, §3

[9] = system: K562; assay: as above; format: cell-based, human; conditions: for IC50: Homo sapiens, K562, 72 h, MTS; for Selectivity index K562: versus NHDF
Excerpt: as §1, §2, §3

[10] = system: MCF-7; assay: as above; format: cell-based, human; conditions: for IC50: Homo sapiens, MCF7, 72 h, MTS; for Selectivity index MCF-7: versus NHDF
Excerpt: as §1, §2, §3

[11] = system: PANC-1; assay: as above; format: cell-based, human; conditions: for IC50: Homo sapiens, PANC-1, 72 h, MTS; for Selectivity index PANC-1: versus NHDF
Excerpt: as §1, §2, §3

[12] = system: U-251; assay: as above; format: cell-based, human; conditions: for IC50: Homo sapiens, U-251, 72 h, MTS; for Selectivity index U-251: versus NHDF
Excerpt: as §1, §2, §3

[13] = system: NHDF; assay: Cytotoxicity studies (MTS), normal fibroblasts; format: cell-based; conditions: 72 h, normal human fibroblasts, read-out: Antiproliferative activity IC50 NHDF
Excerpt: as §1, §2, §3

T3 sequence (P06239 whole entry): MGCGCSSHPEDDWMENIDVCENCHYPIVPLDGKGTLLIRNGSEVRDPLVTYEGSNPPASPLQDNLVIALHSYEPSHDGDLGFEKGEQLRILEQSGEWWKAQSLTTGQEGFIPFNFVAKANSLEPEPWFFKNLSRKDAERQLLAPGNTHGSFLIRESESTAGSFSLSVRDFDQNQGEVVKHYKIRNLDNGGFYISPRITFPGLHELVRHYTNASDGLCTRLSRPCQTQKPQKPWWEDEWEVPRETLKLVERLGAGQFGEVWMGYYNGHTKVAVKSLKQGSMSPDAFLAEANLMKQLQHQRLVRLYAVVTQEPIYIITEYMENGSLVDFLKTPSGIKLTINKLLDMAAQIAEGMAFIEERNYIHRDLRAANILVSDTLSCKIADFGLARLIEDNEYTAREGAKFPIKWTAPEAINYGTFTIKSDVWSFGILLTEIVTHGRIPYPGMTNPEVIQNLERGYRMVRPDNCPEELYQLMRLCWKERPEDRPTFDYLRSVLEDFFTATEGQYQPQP
T1 sequence (Q13882 whole entry): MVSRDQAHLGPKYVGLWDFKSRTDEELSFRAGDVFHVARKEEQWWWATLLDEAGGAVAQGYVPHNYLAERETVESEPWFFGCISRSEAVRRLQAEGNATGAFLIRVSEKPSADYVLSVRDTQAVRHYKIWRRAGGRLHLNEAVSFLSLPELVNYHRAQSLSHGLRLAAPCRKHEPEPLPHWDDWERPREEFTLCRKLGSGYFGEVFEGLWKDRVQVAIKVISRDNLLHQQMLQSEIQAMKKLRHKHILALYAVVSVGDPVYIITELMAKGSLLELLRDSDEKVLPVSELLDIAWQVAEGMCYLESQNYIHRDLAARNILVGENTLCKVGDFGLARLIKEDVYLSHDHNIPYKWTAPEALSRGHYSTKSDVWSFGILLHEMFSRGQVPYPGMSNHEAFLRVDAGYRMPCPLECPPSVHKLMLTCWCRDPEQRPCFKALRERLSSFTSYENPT
T2 sequence (P06241 whole entry): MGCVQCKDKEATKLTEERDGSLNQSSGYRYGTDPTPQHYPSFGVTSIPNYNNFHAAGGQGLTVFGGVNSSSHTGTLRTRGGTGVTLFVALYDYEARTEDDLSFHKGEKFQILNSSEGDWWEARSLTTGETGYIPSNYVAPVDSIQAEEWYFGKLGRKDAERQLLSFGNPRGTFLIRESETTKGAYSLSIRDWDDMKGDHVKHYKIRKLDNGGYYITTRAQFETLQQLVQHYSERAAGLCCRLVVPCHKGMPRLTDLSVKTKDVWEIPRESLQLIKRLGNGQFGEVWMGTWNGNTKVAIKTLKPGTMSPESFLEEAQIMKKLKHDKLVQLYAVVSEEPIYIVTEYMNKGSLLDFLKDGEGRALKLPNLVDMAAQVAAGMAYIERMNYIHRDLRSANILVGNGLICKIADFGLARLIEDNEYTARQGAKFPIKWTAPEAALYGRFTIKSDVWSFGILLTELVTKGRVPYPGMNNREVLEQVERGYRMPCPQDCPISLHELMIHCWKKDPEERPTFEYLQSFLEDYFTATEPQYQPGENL
T5 sequence (P00519 whole entry): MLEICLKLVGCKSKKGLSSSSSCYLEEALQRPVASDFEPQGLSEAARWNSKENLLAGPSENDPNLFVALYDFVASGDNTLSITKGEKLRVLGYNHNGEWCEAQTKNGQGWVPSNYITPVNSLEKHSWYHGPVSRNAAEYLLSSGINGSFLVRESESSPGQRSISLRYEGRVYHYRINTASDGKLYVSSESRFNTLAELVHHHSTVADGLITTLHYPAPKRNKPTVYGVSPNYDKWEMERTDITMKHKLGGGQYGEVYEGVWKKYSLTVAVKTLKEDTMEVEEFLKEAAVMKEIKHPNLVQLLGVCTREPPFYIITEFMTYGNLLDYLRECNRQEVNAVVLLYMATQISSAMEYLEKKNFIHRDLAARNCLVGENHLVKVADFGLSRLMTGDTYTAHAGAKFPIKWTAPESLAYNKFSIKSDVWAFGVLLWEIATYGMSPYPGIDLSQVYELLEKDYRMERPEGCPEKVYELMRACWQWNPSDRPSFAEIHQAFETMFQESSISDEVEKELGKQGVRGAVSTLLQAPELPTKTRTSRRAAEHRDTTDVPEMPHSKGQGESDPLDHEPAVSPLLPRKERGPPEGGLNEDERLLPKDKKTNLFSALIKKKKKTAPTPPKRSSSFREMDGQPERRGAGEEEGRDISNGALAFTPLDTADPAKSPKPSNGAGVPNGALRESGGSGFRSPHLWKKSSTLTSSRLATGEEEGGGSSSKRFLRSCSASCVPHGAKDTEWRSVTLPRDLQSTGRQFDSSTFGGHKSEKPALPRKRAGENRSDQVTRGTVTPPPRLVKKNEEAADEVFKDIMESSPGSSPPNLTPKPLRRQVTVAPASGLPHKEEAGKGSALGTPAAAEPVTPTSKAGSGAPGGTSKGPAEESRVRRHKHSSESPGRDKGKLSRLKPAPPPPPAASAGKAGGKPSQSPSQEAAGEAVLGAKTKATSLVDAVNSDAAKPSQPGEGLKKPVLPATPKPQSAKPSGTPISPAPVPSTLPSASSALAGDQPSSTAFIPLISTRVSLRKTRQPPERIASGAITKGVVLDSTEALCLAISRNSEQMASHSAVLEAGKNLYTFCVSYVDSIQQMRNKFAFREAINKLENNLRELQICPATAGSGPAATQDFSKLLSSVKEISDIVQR
T4 sequence (P07948 1-491 isoform P07948-2): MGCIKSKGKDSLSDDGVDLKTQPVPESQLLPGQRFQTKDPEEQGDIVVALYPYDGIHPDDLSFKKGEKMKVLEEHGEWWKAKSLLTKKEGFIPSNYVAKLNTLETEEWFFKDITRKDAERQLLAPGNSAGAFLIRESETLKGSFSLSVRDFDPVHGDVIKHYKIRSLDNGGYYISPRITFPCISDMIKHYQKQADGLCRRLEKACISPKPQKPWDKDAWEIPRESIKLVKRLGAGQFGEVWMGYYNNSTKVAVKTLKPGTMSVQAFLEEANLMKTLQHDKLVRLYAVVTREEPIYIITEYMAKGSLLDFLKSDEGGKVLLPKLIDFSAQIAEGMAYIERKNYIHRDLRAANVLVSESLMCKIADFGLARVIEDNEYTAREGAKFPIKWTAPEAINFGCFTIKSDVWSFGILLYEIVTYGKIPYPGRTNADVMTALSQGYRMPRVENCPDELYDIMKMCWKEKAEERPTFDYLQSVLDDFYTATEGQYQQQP

SMILES	inhibition at 0.5 µM [1]	inhibition at 0.5 µM [2]	inhibition at 0.5 µM [3]	inhibition at 0.5 µM [4]	IC50 [6]	Selectivity index A549 [6]	IC50 [7]	Selectivity index HCT 116 p53+/+ [7]	IC50 [8]	Selectivity index HCT 116 p53-/- [8]	IC50 [9]	Selectivity index K562 [9]	IC50 [10]	Selectivity index MCF-7 [10]	IC50 [11]	Selectivity index PANC-1 [11]	IC50 [12]	Selectivity index U-251 [12]	IC50 [13]	other results
COc1ccccc1/C=C/c1nc(Sc2ccccc2Cl)c2ccccc2n1 [IS1, 2-[(E)-2–(2-methoxyphenyl)ethenyl]-4–(2-chlorophenylthio)quinazoline]	51%	90.4 ± 9.9%	79%	67.1 ± 5.1%	> 25 µM	1.00	> 25 µM	1.00	> 25 µM	1.00	6.43 ± 1.2 µM	> 3.89	18.5 ± 3.87 µM	1.35	> 25 µM	1.00	> 25 µM	1.00	> 25 µM	Inhibition of tyrosine kinase activity [%] BRK ([1]; 0.5 μM): 51.27 ± 9.04%; Inhibition of tyrosine kinase activity [%] Lck ([3]; 0.5 μM): 79.08 ± 3.51%; Effect on ABL inhibition of IS1 in combination with GNF-2 [5]: significantly attenuated inhibition; also recorded: antagonistic outcome; Effect on ABL inhibition of IS1 in combination with dasatinib [5]: virtually no effect; Effect on ABL inhibition of IS1 in combination with imatinib [5]: synergistic effect
COc1ccccc1/C=C/c1nc(Sc2cccc(O)c2)c2ccccc2n1 [IS8, 3-{2-[(E)-2–(2-methoxyphenyl)ethenyl]quinazolin-4-ylthio}phenol]	15.8 ± 2.25%	0%	0%	0%	> 25 µM	1.00	> 25 µM	1.00	> 25 µM	1.00	1.09 ± 0.299 µM	–	8.03 ± 0.958 µM	3.11	17.9 ± 1.32 µM	1.40	25 ± 2.53 µM	1.00	> 25 µM	–
COc1ccccc1/C=C/c1nc(Sc2ccc3c(c2)OCO3)c2ccccc2n1 [IS10, 5-{2-[(E)-2–(2-methoxyphenyl)ethenyl]quinazolin-4-ylthio}-2H-1,3-benzodioxole]	25 ± 8.51%	21.5 ± 5.71%	28.1 ± 5.74%	0%	> 25 µM	1.00	10.7 ± 0.33 µM	2.33	9.43 ± 1.49 µM	2.65	2.04 ± 0.454 µM	> 12.24	16.3 ± 3.22 µM	1.54	> 25 µM	1.00	> 25 µM	1.00	> 25 µM	–
NC(=O)c1cccc(-c2cc(Nc3ccc(OC(F)(F)F)cc3)ncn2)c1 [GNF-2, reference compound]	0%	0%	0%	0%	> 25 µM	1.00	> 25 µM	1.00	> 25 µM	–	0.208 ± 0.045 µM	> 120.19	> 25 µM	1.00	> 25 µM	1.00	> 25 µM	1.00	> 25 µM	–

From publication PMC10120462, “Styrylquinazoline derivatives as ABL inhibitors selective for different DFG orientations” (Journal of Enzyme Inhibition and Medicinal Chemistry, 2023)
